These results are taken from patent US12478617B2, “Lipidated peptide inhibitors of interleukin-23 receptor” (JANSSEN BIOTECH, INC., priority 2021, dated 2025).

Each structure is given as a SMILES string. Starred links: 1 amine or outer side, 2 acyl side, 3 side chain; linkers in the order of their positions; H or OH if unused. Positions of bridges follow the written chain, without caps; N, C: chain ends. Non-standard residues stand in square brackets, D forms with d. Residues, ends and D or L forms follow the SMILES beside them. Groups on a side chain read outwards from the residue. *: point of attachment. CH3O(CH2CH2O)11CH2CH2CO = COCCOCCOCCOCCOCCOCCOCCOCCOCCOCCOCCOCCC(=O)*; PEG12 = NCCOCCOCCOCCOCCOCCOCCOCCOCCOCCOCCOCCOCCC(=O)O; Trp(7-Me) = Cc1cccc2c(C[C@H](N)C(=O)O)c[nH]c12; C18 diacid = O=C(O)CCCCCCCCCCCCCCCCC(=O)*; γGlu = O=C(O)[C@H](CCC(=O)[*:2])N[*:1]; 2Nal = N[C@@H](Cc1ccc2ccccc2c1)C(=O)O; Palmitoyl = CCCCCCCCCCCCCCCC(=O)*; 3Pal = N[C@@H](Cc1cccnc1)C(=O)O; αMeL = CC(C)C[C@](C)(N)C(=O)O; PEG4 = NCCOCCOCCOCCOCCC(=O)O; Pen = CC(C)(S)[C@H](N)C(=O)O; αMeK = C[C@](N)(CCCCN)C(=O)O; X3 = COCCOCCOCCOCCC(=O)*; Thp = NC1(C(=O)O)CCOCC1; Sar = CNCC(=O)O

IL-23R-expressing DB cells, sequence (Q5VWK5 24-629 limits assumed): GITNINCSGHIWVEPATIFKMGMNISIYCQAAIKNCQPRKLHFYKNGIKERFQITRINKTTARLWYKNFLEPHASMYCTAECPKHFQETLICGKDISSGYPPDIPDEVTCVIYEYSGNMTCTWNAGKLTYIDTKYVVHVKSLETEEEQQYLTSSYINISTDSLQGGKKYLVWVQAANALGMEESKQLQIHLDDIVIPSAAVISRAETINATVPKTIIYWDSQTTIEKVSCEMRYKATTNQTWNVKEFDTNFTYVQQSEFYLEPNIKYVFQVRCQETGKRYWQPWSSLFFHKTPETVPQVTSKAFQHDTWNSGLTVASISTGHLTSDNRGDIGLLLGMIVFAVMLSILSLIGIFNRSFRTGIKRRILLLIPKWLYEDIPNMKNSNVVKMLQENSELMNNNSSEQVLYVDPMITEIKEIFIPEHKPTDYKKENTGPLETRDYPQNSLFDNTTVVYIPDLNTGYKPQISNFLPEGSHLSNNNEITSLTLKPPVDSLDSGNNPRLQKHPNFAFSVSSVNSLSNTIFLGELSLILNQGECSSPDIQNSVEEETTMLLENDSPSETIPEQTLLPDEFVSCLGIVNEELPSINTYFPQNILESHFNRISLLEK

The first series addresses IL-23R-expressing DB cells (Homo sapiens, UniProt Q5VWK5). The experiment in a line: DB Cells IL23R pSTAT3 Cell Assay. Format: cell-based. The following applies: pSTAT3 (HTRF) in IL-23R-expressing DB cells, 0.5 nM IL-23, 30 minutes; Table 6 'IL-23 Cell Data'. As to the method: IL-23 is believed to play a central role in supporting and maintaining Th17 differentiation in vivo. This process is thought to be mediated primarily through the Signal Transducer and Activator of Transcription 3 (STAT3), with phosphorylation of STAT3 (to yield pSTAT3) leading to upregulation of RORC and pro-inflammatory IL-17. […] DB cells (ATCC #CRL-2289), cultured in RPMI-1640 medium (Thermo Scientific #11875093) supplemented with 10% FBS, were added at 5 X 10E5 cells/well and incubated for 30 minutes at 37° C. in a 5% CO2 humidified incubator. Changes in phospho-STAT3 levels in the cell lysates were detected using the Cisbio HTRF pSTAT3 (Tyr705) Cellular Assay Kit (Cisbio #62AT3PEH), according to manufacturer's Two Plate Assay protocol. Where not shown or it is marked as “0”, data was not yet determined.
Usually IC50 stands for the point on the concentration scale where inhibition reaches its midpoint. A low value points to greater potency. Consider `CCCCCCCCCCCCCCCC(=O)N[C@@H](CCC(=O)NCCOCCOCCOCCOCCOCCOCCOCCOCCOCCOCCOCCOCCC(=O)NCCCC[C@H](NC(=O)C1(NC(=O)[C@H](Cc2ccc3ccccc3c2)NC(=O)[C@H](Cc2ccc(OC)cc2)NC(=O)[C@H]2NC(=O)[C@H](CCCCNC(C)=O)NC(=O)[C@H](Cc3c[nH]c4c(C)cccc34)NC(=O)[C@H]([C@@H](C)O)NC(=O)[C@H](CC(C)C)NC(=O)[C@@H](NC(C)=O)C(C)(C)SSC2(C)C)CCOCC1)C(=O)N[C@@H](CC(C)C)C(=O)N[C@@H](Cc1cccnc1)C(=O)N(C)CC(N)=O)C(=O)O` [Example 243, Ac-[Pen]-L-T-[Trp(7-Me)]-[Lys(Ac)]-[Pen]-[Phe(4-OMe)]-[2Nal]-[THP]-[Lys(PEG12_IsoGlu_Palm)]-L-[3Pal]-[Sarc]-NH2] (Ac-[Pen]LT[Trp(7-Me)]K(Ac)[Pen]Y(Me)[2Nal][Thp]K([PEG12-γGlu-Palmitoyl])L[3Pal][Sar]-NH2; disulfide 1-6), for which inhibition was half-maximal at 4.3 nM (IC50).
On the same count and under the same terms, then `COCCOCCOCCOCCOCCOCCOCCOCCOCCOCCOCCOCCC(=O)N[C@@H]1C(=O)N[C@@H](CC(N)=O)C(=O)N[C@@H]([C@@H](C)O)C(=O)N[C@@H](Cc2c[nH]c3c(C)cccc23)C(=O)N[C@@H](CCCCNC(C)=O)C(=O)N[C@H](C(=O)N[C@@H](Cc2ccccc2)C(=O)N[C@@H](Cc2ccc3ccccc3c2)C(=O)N[C@@](C)(CC(C)C)C(=O)N[C@@H](CC(C)C)C(=O)N[C@@H](CC(N)=O)C(=O)N[C@@H](Cc2cccnc2)C(=O)N(C)CC(N)=O)C(C)(C)SSC1(C)C` [Example 207, [PEG12_OMe]-[Pen]-N-T-[Trp(7-Me)]-[Lys(Ac)]-[Pen]-F-[2Nal]-[aMeLeu]-L-N-[3Pal]-[Sarc]-NH2] ({CH3O(CH2CH2O)11CH2CH2CO}-[Pen]NT[Trp(7-Me)]K(Ac)[Pen]F[2Nal][αMeL]LN[3Pal][Sar]-NH2; disulfide 1-6), with 0.631 nM; and `CCCCCCCCCCCCCCCC(=O)N[C@@H](CCC(=O)NCCOCCOCCOCCOCCOCCOCCOCCOCCOCCOCCOCCOCCC(=O)NCCCC[C@](C)(NC(=O)[C@H](Cc1ccc2ccccc2c1)NC(=O)[C@H](Cc1ccc(OC)cc1)NC(=O)[C@H]1NC(=O)[C@H](CCCCNC(C)=O)NC(=O)[C@H](Cc2c[nH]c3c(C)cccc23)NC(=O)[C@H]([C@@H](C)O)NC(=O)[C@H](C)NC(=O)[C@@H](NC(C)=O)C(C)(C)SSC1(C)C)C(=O)N[C@@H](CCCCNC(C)=O)C(=O)N[C@@H](CC(N)=O)C(=O)N[C@@H](Cc1cccnc1)C(=O)N(C)CC(N)=O)C(=O)O` [Example 226, Ac-[Pen]-A-T-[Trp(7-Me)]-[Lys(Ac)]-[Pen]-[Phe(4-OMe)]-[2Nal]-[aMeLys(PEG12_IsoGlu_Palm)]-[Lys(Ac)]-N-[3Pal]-[Sarc]-NH2] (Ac-[Pen]AT[Trp(7-Me)]K(Ac)[Pen]Y(Me)[2Nal][αMeK]([PEG12-γGlu-Palmitoyl])K(Ac)N[3Pal][Sar]-NH2; disulfide 1-6), with 0.633 nM.
In turn, `COCCOCCOCCOCCOCCOCCOCCOCCOCCOCCOCCOCCC(=O)N[C@@H]1C(=O)N[C@@H](CC(C)C)C(=O)N[C@@H]([C@@H](C)O)C(=O)N[C@@H](Cc2c[nH]c3c(C)cccc23)C(=O)N[C@@H](CCCCNC(C)=O)C(=O)N[C@H](C(=O)N[C@@H](Cc2ccccc2)C(=O)N[C@@H](Cc2ccc3ccccc3c2)C(=O)N[C@@](C)(CC(C)C)C(=O)N[C@@H](CC(C)C)C(=O)N[C@@H](CC(N)=O)C(=O)N[C@@H](Cc2cccnc2)C(=O)N(C)CC(N)=O)C(C)(C)SSC1(C)C` [Example 209, [PEG12_OMe]-[Pen]-L-T-[Trp(7-Me)]-[Lys(Ac)]-[Pen]-F-[2Nal]-[aMeLeu]-L-N-[3Pal]-[Sarc]-NH2] ({CH3O(CH2CH2O)11CH2CH2CO}-[Pen]LT[Trp(7-Me)]K(Ac)[Pen]F[2Nal][αMeL]LN[3Pal][Sar]-NH2; disulfide 1-6) registered an IC50 of 0.07 nM.
For `COCCOCCOCCOCCC(=O)N[C@@H]1C(=O)N[C@@H](CC(C)C)C(=O)N[C@@H]([C@@H](C)O)C(=O)N[C@@H](Cc2c[nH]c3c(C)cccc23)C(=O)N[C@@H](CCCCNC(C)=O)C(=O)N[C@H](C(=O)N[C@@H](Cc2ccccc2)C(=O)N[C@@H](Cc2ccc3ccccc3c2)C(=O)N[C@@](C)(CC(C)C)C(=O)N[C@@H](CC(C)C)C(=O)N[C@@H](CC(N)=O)C(=O)N[C@@H](Cc2cccnc2)C(=O)N(C)CC(N)=O)C(C)(C)SSC1(C)C` [Example 213, [PEG4_OMe]-[Pen]-L-T-[Trp(7-Me)]-[Lys(Ac)]-[Pen]-F-[2Nal]-[aMeLeu]-L-N-[3Pal]-[Sarc]-NH2] (X3-[Pen]LT[Trp(7-Me)]K(Ac)[Pen]F[2Nal][αMeL]LN[3Pal][Sar]-NH2; disulfide 1-6), the 50% inhibitory concentration (IC50) was 0.13 nM. Compared with the last compound, the IC50 is about 1.9-fold higher.
With `COc1ccc(C[C@H](NC(=O)[C@H]2NC(=O)[C@H](CCCCNC(=O)CCOCCOCCOCCOCCOCCOCCOCCOCCOCCOCCOCCOCCNC(=O)CC[C@H](NC(=O)CCCCCCCCCCCCCCCCC(=O)O)C(=O)O)NC(=O)[C@H](Cc3c[nH]c4c(C)cccc34)NC(=O)[C@H]([C@@H](C)O)NC(=O)[C@H](CC(C)C)NC(=O)[C@@H](NC(C)=O)C(C)(C)SSC2(C)C)C(=O)N[C@@H](Cc2ccc3ccccc3c2)C(=O)NC2(C(=O)N[C@@H](CC(C)C)C(=O)N[C@@H](CC(C)C)C(=O)N[C@@H](Cc3cccnc3)C(=O)N(C)CC(N)=O)CCOCC2)cc1` [Example 268, Ac-[Pen]-L-T-[Trp(7-Me)]-[Lys(PEG12_IsoGlu_C18_Diacid)]-[Pen]-[Phe(4-OMe)]-[2Nal]-[THP]-L-L-[3Pal]-[Sarc]-NH2] (Ac-[Pen]LT[Trp(7-Me)]K([PEG12-γGlu-C18 diacid])[Pen]Y(Me)[2Nal][Thp]LL[3Pal][Sar]-NH2; disulfide 1-6), the concentration for half-maximal inhibition (IC50) was above 10 nM.
As for `CCCCCCCCCCCCCCCC(=O)N[C@@H](CCC(=O)NCCOCCOCCOCCOCCOCCOCCOCCOCCOCCOCCOCCOCCC(=O)NCCCC[C@](C)(NC(=O)[C@H](Cc1ccc2ccccc2c1)NC(=O)[C@H](Cc1ccc(OC)cc1)NC(=O)[C@H]1NC(=O)[C@H](CCCCNC(C)=O)NC(=O)[C@H](Cc2c[nH]c3c(C)cccc23)NC(=O)[C@H]([C@@H](C)O)NC(=O)[C@H](CC(N)=O)NC(=O)[C@@H](NC(C)=O)C(C)(C)SSC1(C)C)C(=O)N[C@@H](C)C(=O)N[C@@H](C)C(=O)N[C@@H](Cc1cccnc1)C(=O)N(C)CC(N)=O)C(=O)O` [Example 225, Ac-[Pen]-N-T-[Trp(7-Me)]-[Lys(Ac)]-[Pen]-[Phe(4-OMe)]-[2Nal]-[aMeLys(PEG12_IsoGlu_Palm)]-A-A-[3Pal]-[Sarc]-NH2], the IC50 was 0.811 nM. This counts as sub-nanomolar.
Regarding `COc1ccc(C[C@H](NC(=O)[C@H]2NC(=O)[C@H](CCCCNC(=O)CCOCCOCCOCCOCCNC(=O)CCCCCCCCCCCCCCCCC(=O)O)NC(=O)[C@H](Cc3c[nH]c4c(C)cccc34)NC(=O)[C@H]([C@@H](C)O)NC(=O)[C@H](CC(C)C)NC(=O)[C@@H](NC(C)=O)C(C)(C)SSC2(C)C)C(=O)N[C@@H](Cc2ccc3ccccc3c2)C(=O)NC2(C(=O)N[C@@H](CC(C)C)C(=O)N[C@@H](CC(C)C)C(=O)N[C@@H](Cc3cccnc3)C(=O)N(C)CC(N)=O)CCOCC2)cc1` [Example 262, Ac-[Pen]-L-T-[Trp(7-Me)]-[Lys(PEG4_C18_Diacid)]-[Pen]-[Phe(4-OMe)]-[2Nal]-[THP]-L-L-[3Pal]-[Sarc]-NH2] (Ac-[Pen]LT[Trp(7-Me)]K([PEG4-C18 diacid])[Pen]Y(Me)[2Nal][Thp]LL[3Pal][Sar]-NH2; disulfide 1-6), the IC50 was above 10 nM.
`COc1ccc(C[C@H](NC(=O)[C@H]2NC(=O)[C@H](CCCCNC(=O)CC[C@H](NC(=O)CCCCCCCCCCCCCCCCC(=O)O)C(=O)O)NC(=O)[C@H](Cc3c[nH]c4c(C)cccc34)NC(=O)[C@H]([C@@H](C)O)NC(=O)[C@H](CC(C)C)NC(=O)[C@@H](NC(C)=O)C(C)(C)SSC2(C)C)C(=O)N[C@@H](Cc2ccc3ccccc3c2)C(=O)NC2(C(=O)N[C@@H](CCCCNC(C)=O)C(=O)N[C@@H](CC(C)C)C(=O)N[C@@H](Cc3cccnc3)C(=O)N(C)CC(N)=O)CCOCC2)cc1` [Example 271, Ac-[Pen]-L-T-[Trp(7-Me)]-[Lys(IsoGlu_C18_Diacid)]-[Pen]-[Phe(4-OMe)]-[2Nal]-[THP]-[Lys(Ac)]-L-[3Pal]-[Sarc]-NH2] (Ac-[Pen]LT[Trp(7-Me)]K([γGlu-C18 diacid])[Pen]Y(Me)[2Nal][Thp]K(Ac)L[3Pal][Sar]-NH2; disulfide 1-6) gave an IC50 above 10 nM.
In turn, `COCCOCCOCCOCCC(=O)N[C@@H]1C(=O)N[C@@H](CC(N)=O)C(=O)N[C@@H]([C@@H](C)O)C(=O)N[C@@H](Cc2c[nH]c3c(C)cccc23)C(=O)N[C@@H](CCCCNC(C)=O)C(=O)N[C@H](C(=O)N[C@@H](Cc2ccccc2)C(=O)N[C@@H](Cc2ccc3ccccc3c2)C(=O)N[C@@](C)(CC(C)C)C(=O)N[C@@H](CC(C)C)C(=O)N[C@@H](CC(N)=O)C(=O)N[C@@H](Cc2cccnc2)C(=O)N(C)CC(N)=O)C(C)(C)SSC1(C)C` [Example 211, [PEG4_OMe]-[Pen]-N-T-[Trp(7-Me)]-[Lys(Ac)]-[Pen]-F-[2Nal]-[aMeLeu]-L-N-[3Pal]-[Sarc]-NH2] (X3-[Pen]NT[Trp(7-Me)]K(Ac)[Pen]F[2Nal][αMeL]LN[3Pal][Sar]-NH2; disulfide 1-6) showed an IC50 of 0.062 nM.

System in a further series: not given
Assay: not given
The following applies: from Ac-dArg-Pen-Asn-Thr-7MeTrp-Lys(Ac)-Pen-AEF-2Nal-THP-Lys(Ac)-Asn-3Pya-N(PEG2PEG2gEC18OH)Gly-NH2; disulfide bond; 20-membered ring; I2/AcOH; ACN/H2O; […].
Take `CC(=O)NCCCC[C@@H]1NC(=O)[C@H](Cc2c[nH]c3c(C)cccc23)NC(=O)[C@H]([C@@H](C)O)NC(=O)[C@H](CC(N)=O)NC(=O)[C@@H](NC(=O)[C@@H](CCCNC(=N)N)NC(C)=O)C(C)(C)SSC(C)(C)[C@@H](C(=O)N[C@@H](Cc2ccc(OCCN)cc2)C(=O)N[C@@H](Cc2ccc3ccccc3c2)C(=O)NC2(C(=O)N[C@@H](CCCCNC(C)=O)C(=O)N[C@@H](CC(N)=O)C(=O)N[C@@H](Cc3cccnc3)C(=O)N(CCOCCOCCNC(=O)COCCOCCNC(=O)CC[C@H](NC(=O)CCCCCCCCCCCCCCCCC(=O)O)C(=O)O)CC(N)=O)CCOCC2)NC1=O`: the ring closure, yield after HPLC is 19.6%.
